Data as given in article PMC4330362, “The ATP-mediated formation of the YgjD–YeaZ–YjeE complex is required for the biosynthesis of tRNA t^6A in Escherichia coli” (Nucleic Acids Research, 2015).

Assays:
[1] = biological target: T1, YjeE (Escherichia coli, UniProt P0AF67, W109A); assay: ITC; format: binding
T1 construct: gene tsaE; full length, C-terminal Strep II tag, expressed in E. coli BL21(DE3) from pET28a; monomer-dimer equilibrium

[2] = biological target: T2, YjeE (Escherichia coli, UniProt P0AF67); assay: ITC; format: binding
T2 construct: gene tsaE; full length, C-terminal Strep II tag, expressed in E. coli BL21(DE3) from pET28a; monomer-dimer equilibrium

[3] = biological target: T3, YgjD–YeaZ (Escherichia coli, UniProt P05852+P76256); assay: crystal structure […] A; format: binding; conditions: cocrystallised with ATP and MgCl2; two ADP: YgjD active site (Mg2+, Fe) and YgjD-YeaZ interface; no heat signal by ITC
T3 construct: gene tsaD; 1:1 heterodimer of full-length YgjD (337 residues) and YeaZ (231 residues), each C-terminally 6xHis tagged, expressed in E. coli BL21(DE3); nucleotide sites in the YgjD active site and at the YgjD-YeaZ interface

[4] = biological target: T4, YgjD (Escherichia coli, UniProt P05852); assay: ITC; format: binding
T4 construct: gene tsaD; full length (337 residues), C-terminal 6xHis tag, expressed in E. coli BL21(DE3) from pET9a; homodimer in solution

[5] = biological target: T3, YgjD–YeaZ; assay: ITC; format: binding
[6] = biological target: T5, YgjD–YeaZ (Escherichia coli, UniProt P05852+P76256, P05852:V85E); assay: crystal structure; format: binding; conditions: crystallised in presence of ATP; no nucleotide at the interface
T5 construct: gene tsaD; 1:1 heterodimer of full-length YgjD (337 residues) and YeaZ (231 residues), each C-terminally 6xHis tagged, expressed in E. coli BL21(DE3); nucleotide sites in the YgjD active site and at the YgjD-YeaZ interface

[7] = biological target: T6, YjeE (Escherichia coli, UniProt P0AF67, Y82A); assay: ITC; format: binding
T6 construct: gene tsaE; full length, C-terminal Strep II tag, expressed in E. coli BL21(DE3) from pET28a; monomer-dimer equilibrium

[8] = biological target: YeaZ (Salmonella typhimurium) (UniProt Q7CQE0); conditions: cited from earlier work
[9] = test system: Nc1ncnc2c1ncn2[C@@H]1O[C@H](COP(=O)(O)OP(=O)(O)OP(=O)(O)O)[C@@H](O)[C@H]1O; assay: purified protein; conditions: 50 mM HEPES pH 7.5, 20 °C, YjeE at 2 molar equivalents
[10] = biological target: the molecule itself; assay: SEC; HiLoad 16/60 Superdex 75 pg; single proteins and equimolar mixture

## Nc1ncnc2c1ncn2[C@@H]1O[C@H](COP(=O)(O)OP(=O)(O)O)[C@@H](O)[C@H]1O [ADP]
[1]
  Kd: 4.83 ± 0.022 µM
[2]
  Kd: 6.54 ± 0.053 µM
[3]
  crystal structure 2.3 A: An ADP molecule could unequivocally fit the density

## Nc1ncnc2c1ncn2[C@@H]1O[C@H](COP(=O)(O)CP(=O)(O)OP(=O)(O)O)[C@@H](O)[C@H]1O [AMPCPP]
[4]
  Kd: 1.62 ± 0.088 µM
[5]
  Kd: 0.7 ± 0.011 µM

## Nc1ncnc2c1ncn2[C@@H]1O[C@H](COP(=O)(O)OP(=O)(O)OP(=O)(O)O)[C@@H](O)[C@H]1O [ATP]
[6]
  crystal structure: YgjD^V85E(ATP)–YeaZ crystal structures under accession number

## Nc1ncnc2c1ncn2[C@@H]1O[C@H](CO[P@](=O)(O)O[P@](=O)(O)O[P@@](=O)(O)S)[C@@H](O)[C@H]1O [ATPγS]
[2]
  Kd: 20.4 ± 1.32 µM
[7]
  Kd: 8.9 ± 0.013 µM

## YgjD (from UniProt P40731)
[8]
  Kd: 0.3 µM

## YgjD–YeaZ–2xYjeE complex (Escherichia coli K-12)
[9]
  Km: 644 µM
  kcat: 0.4 s⁻¹

B1: YgjD (TsaD) (enzyme, Escherichia coli K-12, UniProt P05852 1-337, looked up)
chain: MRVLGIETSCDETGIAIYDDEKGLLANQLYSQVKLHADYGGVVPELASRDHVRKTVPLIQAALKESGLTAKDIDAVAYTAGPGLVGALLVGATVGRSLAFAWDVPAIPVHHMEGHLLAPMLEDNPPEFPFVALLVSGGHTQLISVTGIGQYELLGESIDDAAGEAFDKTAKLLGLDYPGGPLLSKMAAQGTAGRFVFPRPMTDRPGLDFSFSGLKTFAANTIRDNGTDDQTRADIARAFEDAVVDTLMIKCKRALDQTGFKRLVMAGGVSANRTLRAKLAEMMKKRRGEVFYARPEFCTDNGAMIAYAGMVRFKAGATADLGVSVRPRWPLAELPAA
notes: YgjD (TsaD), Escherichia coli K-12, 337 residues; gene amplified from genomic DNA, cloned in pET9a; Alone it is a homodimer by gel filtration and SAXS; also called Ec–YgjD; source: E. coli BL21(DE3), purified (details in the Supplementary Materials)
[10]
  stoichiometry N: 2
